Test results from the supplement of paper PMC10307832.

Key:
Assay in all cases: relative viability (nuclei count vs DMSO), 5 days (fraction); higher = more cells survive
R406 + Trametinib = compound: COc1cc(Nc2ncc(F)c(Nc3ccc4c(n3)NC(=O)C(C)(C)O4)n2)cc(OC)c1OC [R406] + CC(=O)Nc1cccc(-n2c(=O)n(C3CC3)c(=O)c3c(Nc4ccc(I)cc4F)n(C)c(=O)c(C)c32)c1 [Trametinib] (partner 0.02 µM)
Procedure, shortened: (§1)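 One day after seeding in 1536-well plates, lung cancer cell lines were dosed by pin tool. Dosing was either single-drug or a fixed anchor-drug dose plus five library-drug doses (not always all listed) in √10 steps. After 5 days, nuclei were stained in one fix-and-stain step and counted on 4× images, and relative viability is the nuclei count of treated wells over that of vehicle wells, given as the median of duplicate plates.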

R406 + AZD7762 = compound: COc1cc(Nc2ncc(F)c(Nc3ccc4c(n3)NC(=O)C(C)(C)O4)n2)cc(OC)c1OC [R406] + NC(=O)Nc1cc(-c2cccc(F)c2)sc1C(=O)N[C@H]1CCCNC1 [AZD7762] (partner 0.2 µM)
Procedure, shortened: as §1

Daporinad + Phenformin = compound: O=C(/C=C/c1cccnc1)NCCCCC1CCN(C(=O)c2ccccc2)CC1 [Daporinad] + N=C(N)NC(=N)NCCc1ccccc1 [Phenformin] (partner 250 µM)
Procedure, shortened: as §1

R406 + Pictilisib = compound: COc1cc(Nc2ncc(F)c(Nc3ccc4c(n3)NC(=O)C(C)(C)O4)n2)cc(OC)c1OC [R406] + CS(=O)(=O)N1CCN(Cc2cc3nc(-c4cccc5[nH]ncc45)nc(N4CCOCC4)c3s2)CC1 [Pictilisib] (partner 1 µM)
Procedure, shortened: as §1

Cell Line	relative viability (R406 + Trametinib; first compound 0.08 µM)	relative viability (R406 + Trametinib; first compound 0.253 µM)	relative viability (R406 + Trametinib; first compound 0.8 µM)	relative viability (R406 + Trametinib; first compound 2.53 µM)	relative viability (R406 + Trametinib; first compound 8 µM)	relative viability (R406 + AZD7762; first compound 0.08 µM)	relative viability (R406 + AZD7762; first compound 0.253 µM)	relative viability (R406 + AZD7762; first compound 0.8 µM)	relative viability (R406 + AZD7762; first compound 2.53 µM)	relative viability (R406 + AZD7762; first compound 8 µM)	relative viability (Daporinad + Phenformin; first compound 0.0005 µM)	relative viability (Daporinad + Phenformin; first compound 0.001581 µM)	relative viability (Daporinad + Phenformin; first compound 0.005 µM)	relative viability (Daporinad + Phenformin; first compound 0.01581 µM)	relative viability (R406 + Pictilisib; first compound 0.08 µM)	relative viability (R406 + Pictilisib; first compound 0.253 µM)	relative viability (R406 + Pictilisib; first compound 0.8 µM)	relative viability (R406 + Pictilisib; first compound 2.53 µM)	relative viability (R406 + Pictilisib; first compound 8 µM)
NCI-H1666	0.901	0.866	0.943	0.955	0.679	1.12	0.937	0.893	0.892	0.773	0.586	0.563	0.602	0.562	0.431	0.555	0.515	0.323	0.359
NCI-H2085	0.591	0.634	0.545	0.498	0.226	1.03	1	1.02	0.72	0.726	0.816	0.855	0.796	0.816	0.413	0.505	0.459	0.482	0.37
NCI-H1734	0.637	0.685	0.715	0.575	0.383	0.58	0.582	0.679	0.228	0.313	0.437	0.496	0.479	0.299	0.434	0.478	0.593	0.248	0.281
NCI-H2126	0.609	0.535	0.511	0.519	0.522	0.937	1.12	1.08	0.909	0.858	0.541	0.533	0.586	0.62	0.508	0.502	0.49	0.437	0.493
